Results: patent US20260083704A1, “LXR MODULATORS WITH BICYCLIC CORE MOIETY FOR TREATING DYSLIPIDEMIAS” (OrsoBio, Inc., priority 2022, published 2026)

Tests used:
[1] = tested on: LXR target genes (Scd1, Fas, Srebp1) in liver; assay: Short term HFD mouse model: gene expression in liver tissue; format: in vivo; conditions: HFD mice, expression normalized to Tbp; for response vs control in vivo at 20 mg/kg / response vs control in vivo at 10 mg/kg: Mus musculus, 4 h, read-out: Scd1 suppresion compared to vehicle
Description: (§1) The in vivo transcriptional regulation of several LXR target genes by LXR modulators was assessed in mice.
(§2) For this, C57BL/6J were purchased from Elevage Janvier (Rennes, France) at the age of 8 weeks. After an acclimation period of two weeks, animals were prefed on a high fat diet (HFD) (Ssniff Spezialdiäten GmbH, Germany, Surwit EF D12330 mod, Cat. No. E15771-34), with 60 kcal % from fat plus 1% (w/w) extra cholesterol (Sigma-Aldrich, St. Louis, MO) for 5 days. Animals were maintained on this diet during treatment with LXR modulators. The test compounds were formulated in 0.5% hydroxypropylmethylcellulose (HPMC) and administered in three doses (from 1.5 to 20 mg/kg each) by oral gavage according to the following schedule: on day one, animals received treatment in the morning and the evening (ca. 17:00), on day two animals received the final treatment in the morning after a 4 h fast and were sacrificed 4 h thereafter. Animal work was conducted according to the national guidelines for animal care in Germany.
Analysis of gene expression in liver tissue. To obtain total RNA from frozen liver tissue, samples (25 mg liver tissue) were first homogenized with RLA buffer (4M guanidin thiocyanate, 10 mM Tris, 0.97% w:v β-mercapto-ethanol). RNA was prepared using a SV 96 total RNA Isolation system (Promega, Madison, Wisconsin, USA) following the manufacturer's instructions. cDNAs were synthesized from 0.8-1 μg of total RNA using All-in-One cDNA Supermix reverse transcriptase (Absource Diagnostics, Munich, Germany). Quantitative PCR was performed and analyzed using Prime time Gene expression master mix (Integrated DNA Technologies, Coralville, Iowa, USA) and a 384-format ABI 7900HT Sequence Detection System (Applied Biosystems, Foster City, USA). The expression of the following genes was analysed: Stearoyl-CoA desaturase1 (Scd1), fatty acid synthase (Fas) and sterol regulatory element-binding protein1 (Srebp1). Specific primer and probe sequences (commercially available) are listed in Table 3. qPCR was conducted at 95° C. for 3 min, followed by 40 cycles of 95° C. for 15 s and 60° C. for 30 s. All samples were run in duplicates from the same RT-reaction. Gene expression was expressed in arbitrary units and normalized relative to the mRNA of the housekeeping gene TATA box binding protein (Tbp) using the comparative Ct method.

[2] = Short term HFD mouse model: plasma and liver exposure; format: in vivo; conditions: HFD mice, 4 h after final dose
Description: as §1, §2
Upon termination, liver was collected, dipped in ice cold PBS for 30 seconds and cut into appropriate pieces. Pieces were snap frozen in liquid nitrogen and stored at −80° C. For the clinical chemistry analysis from plasma, alanine aminotransferase (ALT, IU/mL), cholesterol (CHOL, mg/dL) and triglycerides (TG, mg/dL) were determined using a fully-automated bench top analyzer (Respons®910, DiaSys Greiner GmbH, Flacht, Germany) with system kits provided by the manufacturer.

[3] = three oral doses of 20 mg/kg over two days
[4] = three oral doses of 10 mg/kg over two days

Compound	Srebp1c suppr. compared to vehicle ([1]; three oral doses of 20 mg/kg)	response vs control in vivo at 20 mg/kg ([1]; three oral doses of 20 mg/kg)	liver exposure 4 h [2, 3]	liver/plasma ratio 4 h [2, 3]	plasma exposure 4 h [2, 3]	Fasn suppression compared to vehicle ([1]; three oral doses of 20 mg/kg)	Fasn suppression compared to vehicle ([1]; three oral doses of 10 mg/kg)	response vs control in vivo at 10 mg/kg ([1]; three oral doses of 10 mg/kg)	liver exposure 4 h [2, 4]	liver/plasma ratio 4 h [2, 4]	plasma exposure 4 h [2, 4]	Srebp1c suppr. compared to vehicle ([1]; three oral doses of 10 mg/kg)
Cc1ccc(S(=O)(=O)n2c(-c3cccc(-c4ccc(C(=O)O)cc4Cl)c3)c(-c3ccsc3C#N)c3cc(F)ccc32)cc1 [3/48]	D (<0.3)	< 30%	C (1 μM to ≤10 μM)	C (30 to ≤100)	D (<100 nM)							
O=C(O)c1ccc(-c2cccc(-c3c(-c4ccccc4C4COC4)c4cc(F)ccc4n3S(=O)(=O)c3ccc(C(F)F)cc3)c2)c(Cl)c1 [3/59]	D (<0.3)	30 to 60%	C (1 μM to ≤10 μM)	B (5 to ≤30)	C (100 nM to <300 nM)							
Cc1ccc(S(=O)(=O)n2c(-c3cccc(C45CCC(C(=O)O)(CC4)CC5)c3)c(-c3ccsc3C#N)c3cc(F)ccc32)cc1 [3/64]	B (0.6 to ≤0.9)	< 30%	D (>10 μM)	D (>100)	C (100 nM to <300 nM)	B (0.6 to ≤0.9)						
N#Cc1cccc(C#N)c1-c1c(-c2cccc(-c3c(F)cc(CC(=O)O)cc3F)c2)n(S(=O)(=O)c2ccc(C(F)F)cc2)c2ccc(F)cc12 [3/73]							A (>0.9)	< 30%	B (300 nM to ≤1 μM)	C (30 to ≤100)	D (<100 nM)	
Cc1ccc(S(=O)(=O)n2c(-c3cccc(-c4ccc(C(=O)O)cc4)c3)c(-c3ccsc3C#N)c3cc(F)ccc32)cc1 [5/3]		30 to 60%	C (1 μM to ≤10 μM)	B (5 to ≤30)	D (<100 nM)	D (<0.3)						
CC(=O)NS(=O)(=O)c1ccc(-c2cccc(-c3c(-c4c(C#N)cccc4C#N)c4cc(F)ccc4n3S(=O)(=O)c3ccc(C(F)F)cc3)c2)c(Cl)c1 [8/8]								< 30%	B (300 nM to ≤1 μM)	B (5 to ≤30)	C (100 nM to <300 nM)	D (<0.3)
N#Cc1cccc(C#N)c1-c1c(-c2cccc(-c3ccc(C(=O)NCCS(=O)(=O)O)cc3Cl)c2)n(S(=O)(=O)c2ccc(C(F)F)cc2)c2ccc(F)cc12 [10/1]								< 30%	B (300 nM to ≤1 μM)	C (30 to ≤100)	D (<100 nM)	D (<0.3)
CN(CCS(=O)(=O)O)C(=O)c1ccc(-c2cccc(-c3c(-c4c(C#N)cccc4C#N)c4cc(F)ccc4n3S(=O)(=O)c3ccc(C(F)F)cc3)c2)c(Cl)c1 [10/2]								30 to 60%	D (>10 μM)	B (5 to ≤30)	D (<100 nM)	C (0.3 to ≤0.6)
N#Cc1nccnc1-c1c(-c2cccc(-c3cc(F)c(C(=O)O)cc3Cl)c2)n(S(=O)(=O)c2ccc(C(F)F)cc2)c2ccc(F)cc12 [11/11]		< 30%	D (>10 μM)	D (>100)	D (<100 nM)	C (0.3 to ≤0.6)						
